Laboratory results reported in US20020137929A1, “1 - (3-heterocyclylphenyl) isothiourea, -isourea, -guanidine and -amidine herbicidal agents” (Intellectual Property Department, BASF Aktiengesellschaft, priority 1998, published 2002).

Key:
[1] = test system: GALAP (Galium); assay: Postemergence herbicidal evaluation; format: in vivo, Galium aparine; details: postemergence
How it was run: (§1)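 Seedlings grown about two weeks were sprayed at 40 psi with compound dispersed in 50/50 acetone/water plus 0.5% TWEEN 20, at about 0.0156 to 0.500 kg/ha. Plants were kept in the greenhouse and scored 4–5 weeks later on a 0–9 visual scale against untreated controls.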

[2] = test system: IPOHE (Morningglory, Ivyleaf); assay: Postemergence herbicidal evaluation; format: in vivo, Ipomoea hederacea; details: postemergence
How it was run: as §1

[3] = test system: SETVI (Foxtail, Green); assay: Postemergence herbicidal evaluation; format: in vivo, Setaria viridis; details: postemergence
How it was run: as §1

[4] = test system: TRZAWR (Wheat, Winter, cv Riband); assay: Postemergence herbicidal evaluation; format: in vivo, Triticum aestivum; details: postemergence
How it was run: as §1

[5] = test system: ABUTH (Velvetleaf); assay: Preemergence herbicidal evaluation; format: in vivo, Abutilon theophrasti; details: rated 4-5 weeks after treatment; for ABUTH rating: preemergence, 0-9 scale
How it was run: (§2)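 Seeds were planted in potting soil in cups, then sprayed preemergence with the test compound in aqueous acetone at about 0.0156 to 0.500 kg per hectare. Cups were kept under greenhouse conditions and visually rated 4–5 weeks after treatment on a 0–9 scale against an untreated control.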

[6] = test system: IPOHE (Morningglory, Ivyleaf); assay: Preemergence herbicidal evaluation; format: in vivo, Ipomoea hederacea; details: rated 4-5 weeks after treatment; for IPOHE rating: preemergence, 0-9 scale
How it was run: as §2

[7] = test system: ECHCG (Barnyardgrass); assay: Preemergence herbicidal evaluation; format: in vivo, Echinochloa crus-galli; details: rated 4-5 weeks after treatment; for ECHCG rating: preemergence, 0-9 scale
How it was run: as §2

[8] = test system: SETVI (Foxtail, Green); assay: Preemergence herbicidal evaluation; format: in vivo, Setaria viridis; details: rated 4-5 weeks after treatment; for SETVI rating: preemergence, 0-9 scale
How it was run: as §2

[9] = test system: ZEAMX (Corn, Field); assay: Preemergence herbicidal evaluation; format: in vivo, Zea mays; details: rated 4-5 weeks after treatment; for ZEAMX rating: preemergence, 0-9 scale
How it was run: as §2

[10] = test system: ECHORC (Watergrass (Calif.)); assay: Preemergence weed control under flooded paddy conditions; format: in vivo, Echinochloa oryzoides; details: rated 3-4 weeks after treatment
How it was run: (§3)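 Seeds or propagules sown in top 0.5 cm of silt loam soil, flooded 1.5 to 3 cm above surface throughout. Compound in 50/50 v/v aqueous/acetone pipetted into flood water at about 0.0313 to 0.500 kg/ha. Visual 0-9 rating versus control after three to four weeks in greenhouse.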

[11] = test system: CYPIR (Rice Flatsedge); assay: as above; format: in vivo, Cyperus iria; details: rated 3-4 weeks after treatment
How it was run: as §3

[12] = test system: MOOVA (Monochoria); assay: as above; format: in vivo, Monochoria vaginalis; details: rated 3-4 weeks after treatment
How it was run: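 Greenhouse paddy assay. Acetone/water (50/50 v/v) solutions dosed into flood water, equivalent to about 0.0313 to 0.500 kg/ha active ingredient, over seeds planted 0.5 cm deep in silt loam. Score: 0-9 visual, based on stand, vigor, malformation, size and chlorosis, 3 to 4 weeks after treatment.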

[13] = test system: ECHORC (Watergrass (Calif.)); assay: Postemergence weed control under flooded paddy conditions; format: in vivo, Echinochloa oryzoides; details: postemergence weeds
How it was run: (§4)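 With weeds 3 to 5 cm tall and rice at the 1.5 to 2.5 leaf stage, containers were flooded and water held 1.5 to 3 cm above soil. Compounds in 50/50 v/v aqueous/acetone went into the flood water at about 0.0313 to 0.500 kg/ha a.i. Effects were visually rated 0–9 against controls after three to four weeks in the greenhouse.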

[14] = test system: SAGPY (Arrowhead (Pygmaea)); assay: as above; format: in vivo, Sagittaria pygmaea; details: postemergence weeds
How it was run: as §4

[15] = rate 0.0313 kg/ha, 3-4 weeks after treatment
[16] = rate 0.0625 kg/ha, 3-4 weeks after treatment
[17] = rate 0.1250 kg/ha, 3-4 weeks after treatment
[18] = rate 0.2500 kg/ha, 3-4 weeks after treatment
[19] = Rate 0.0313 kg/ha, rated 3 to 4 weeks after treatment
[20] = Rate 0.0625 kg/ha, rated 3 to 4 weeks after treatment
[21] = Rate 0.1250 kg/ha, rated 3 to 4 weeks after treatment
[22] = Rate 0.2500 kg/ha, rated 3 to 4 weeks after treatment
[23] = rate 0.1160 kg/ha, 3-4 weeks after treatment
[24] = rate 0.2310 kg/ha, 3-4 weeks after treatment
[25] = rate 0.4630 kg/ha, 3-4 weeks after treatment

CCOC(=O)CN1C(=O)C(Cc2ccccc2)SC1=Nc1cc(-n2c(=O)cc(C(F)(F)F)n(C)c2=O)c(F)cc1Cl (stereo not drawn) [Compound 24, Ethyl 5-benzyl-2-{{2-chloro-5-[3,6-dihydro-3-methyl-2,6-dioxo-4-(trifluoromethyl)-1(2H)-pyrimidinyl]-4-fluorophenyl}imino}-4-oxo-3-thiazolidineacetate]
1.0: GALAP herbicidal rating ([1]; rate 0.0158 kg/ha) | SETVI preemergence herbicidal rating ([8]; rate 0.2500 kg/ha) | ZEAMX preemergence herbicidal rating ([9]; rate 0.2500 kg/ha)
2.0: IPOHE herbicidal rating ([2]; rate 0.0158 kg/ha)
4.0: GALAP herbicidal rating ([1]; rate 0.0315 kg/ha) | ABUTH preemergence herbicidal rating ([5]; rate 0.0625 kg/ha) | Herbicidal rating ECHORC ([10]; 0.0313 kg/ha) | Herbicidal rating ECHORC [13, 15]
3.5: TRZAWR herbicidal rating ([4]; rate 0.0158 kg/ha) | TRZAWR herbicidal rating ([4]; rate 0.0315 kg/ha) | TRZAWR herbicidal rating ([4]; rate 0.0630 kg/ha)
9.0: IPOHE herbicidal rating ([2]; rate 0.0315 kg/ha) | ABUTH preemergence herbicidal rating ([5]; rate 0.1250 kg/ha) | ABUTH preemergence herbicidal rating ([5]; rate 0.2500 kg/ha) | Herbicidal rating ECHORC ([10]; 0.0625 kg/ha) | Herbicidal rating ECHORC ([10]; 0.1250 kg/ha) | Herbicidal rating ECHORC ([10]; 0.2500 kg/ha) | Herbicidal rating MOOVA ([12]; 0.0625 kg/ha) | Herbicidal rating MOOVA ([12]; 0.1250 kg/ha) | Herbicidal rating MOOVA ([12]; 0.2500 kg/ha) | Herbicidal rating ECHORC [13, 16] | Herbicidal rating ECHORC [13, 17] | Herbicidal rating ECHORC [13, 18]
6.0: GALAP herbicidal rating ([1]; rate 0.0630 kg/ha)
0.0: SETVI herbicidal rating ([3]; rate 0.0158 kg/ha) | SETVI herbicidal rating ([3]; rate 0.0315 kg/ha) | SETVI herbicidal rating ([3]; rate 0.0630 kg/ha) | IPOHE preemergence herbicidal rating ([6]; rate 0.0625 kg/ha) | IPOHE preemergence herbicidal rating ([6]; rate 0.1250 kg/ha) | IPOHE preemergence herbicidal rating ([6]; rate 0.2500 kg/ha) | ECHCG preemergence herbicidal rating ([7]; rate 0.0625 kg/ha) | ECHCG preemergence herbicidal rating ([7]; rate 0.1250 kg/ha) | ECHCG preemergence herbicidal rating ([7]; rate 0.2500 kg/ha) | SETVI preemergence herbicidal rating ([8]; rate 0.0625 kg/ha) | SETVI preemergence herbicidal rating ([8]; rate 0.1250 kg/ha) | ZEAMX preemergence herbicidal rating ([9]; rate 0.0625 kg/ha) | ZEAMX preemergence herbicidal rating ([9]; rate 0.1250 kg/ha) | Herbicidal rating CYPIR ([11]; 0.0313 kg/ha) | Herbicidal rating CYPIR ([11]; 0.0625 kg/ha) | Herbicidal rating CYPIR ([11]; 0.1250 kg/ha) | Herbicidal rating CYPIR ([11]; 0.2500 kg/ha) | Herbicidal rating MOOVA ([12]; 0.0313 kg/ha) | Herbicidal rating SAGPY [14, 15] | Herbicidal rating SAGPY [14, 16] | Herbicidal rating SAGPY [14, 17] | Herbicidal rating SAGPY [14, 18]

CN1C(=O)C(CC(=O)OCCF)SC1=Nc1cc(-n2c(=O)cc(C(F)(F)F)n(C)c2=O)c(F)cc1Cl (stereo not drawn) [Compound 93, 2-Fluoroethyl 2-{{2-chloro-5-[3,6-dihydro-3-methyl-2,6-dioxo-4-(trifluoromethyl)-1(2H)-pyrimidinyl]-4-fluorophenyl}imino}-3-methyl-4-oxo-5-thiazolidineacetate]
9.0: IPOHE herbicidal rating ([2]; rate 0.0158 kg/ha) | IPOHE herbicidal rating ([2]; rate 0.0315 kg/ha) | IPOHE herbicidal rating ([2]; rate 0.0630 kg/ha) | SETVI herbicidal rating ([3]; rate 0.0158 kg/ha) | SETVI herbicidal rating ([3]; rate 0.0315 kg/ha) | SETVI herbicidal rating ([3]; rate 0.0630 kg/ha) | ABUTH rating ([5]; 0.0625 kg/ha) | ABUTH rating ([5]; 0.1250 kg/ha) | ABUTH rating ([5]; 0.2500 kg/ha) | IPOHE rating ([6]; 0.1250 kg/ha) | IPOHE rating ([6]; 0.2500 kg/ha) | SETVI rating ([8]; 0.2500 kg/ha) | MOOVA herbicidal effect rating ([12]; 0.0313 kg/ha) | MOOVA herbicidal effect rating ([12]; 0.0625 kg/ha) | MOOVA herbicidal effect rating ([12]; 0.1250 kg/ha) | MOOVA herbicidal effect rating ([12]; 0.2500 kg/ha) | Herbicidal rating SAGPY [14, 22]
0.0: GALAP herbicidal rating ([1]; rate 0.0158 kg/ha) | IPOHE rating ([6]; 0.0313 kg/ha) | ECHCG rating ([7]; 0.0313 kg/ha) | ECHCG rating ([7]; 0.0625 kg/ha) | ECHCG rating ([7]; 0.1250 kg/ha) | ECHCG rating ([7]; 0.2500 kg/ha) | SETVI rating ([8]; 0.0313 kg/ha) | SETVI rating ([8]; 0.0625 kg/ha) | SETVI rating ([8]; 0.1250 kg/ha) | ZEAMX rating ([9]; 0.0313 kg/ha) | ZEAMX rating ([9]; 0.0625 kg/ha) | ECHORC herbicidal effect rating ([10]; 0.0313 kg/ha) | CYPIR herbicidal effect rating ([11]; 0.0313 kg/ha) | CYPIR herbicidal effect rating ([11]; 0.0625 kg/ha) | CYPIR herbicidal effect rating ([11]; 0.1250 kg/ha) | CYPIR herbicidal effect rating ([11]; 0.2500 kg/ha) | Herbicidal rating ECHORC [13, 19] | Herbicidal rating SAGPY [14, 19] | Herbicidal rating SAGPY [14, 20]
2.0: IPOHE rating ([6]; 0.0625 kg/ha)
7.5: TRZAWR herbicidal rating ([4]; rate 0.0630 kg/ha)
7.0: ECHORC herbicidal effect rating ([10]; 0.2500 kg/ha) | Herbicidal rating ECHORC [13, 22]
5.0: GALAP herbicidal rating ([1]; rate 0.0315 kg/ha) | TRZAWR herbicidal rating ([4]; rate 0.0158 kg/ha) | ABUTH rating ([5]; 0.0313 kg/ha)
4.0: ECHORC herbicidal effect rating ([10]; 0.1250 kg/ha) | Herbicidal rating ECHORC [13, 21]
1.0: ZEAMX rating ([9]; 0.1250 kg/ha)
3.0: ECHORC herbicidal effect rating ([10]; 0.0625 kg/ha) | Herbicidal rating ECHORC [13, 20] | Herbicidal rating SAGPY [14, 21]
6.0: GALAP herbicidal rating ([1]; rate 0.0630 kg/ha) | TRZAWR herbicidal rating ([4]; rate 0.0315 kg/ha) | ZEAMX rating ([9]; 0.2500 kg/ha)

CCOC(=O)CN1C(=O)C(=Cc2ccccc2)SC1=Nc1cc(-n2c(=O)cc(C(F)(F)F)n(C)c2=O)c(F)cc1Cl [Compound 19, Ethyl 5-benzylidene-2-{{2-chloro-5-[3,6-dihydro-3-methyl-2,6-dioxo-4-(trifluoromethyl)-1(2H)-pyrimidinyl]-4-fluorophenyl}imino}-4-oxo-3-thiazolidineacetate]
0.0: IPOHE preemergence herbicidal rating ([6]; rate 0.1250 kg/ha) | IPOHE preemergence herbicidal rating ([6]; rate 0.2500 kg/ha) | ECHCG preemergence herbicidal rating ([7]; rate 0.1250 kg/ha) | ECHCG preemergence herbicidal rating ([7]; rate 0.2500 kg/ha) | SETVI preemergence herbicidal rating ([8]; rate 0.1250 kg/ha) | SETVI preemergence herbicidal rating ([8]; rate 0.2500 kg/ha) | ZEAMX preemergence herbicidal rating ([9]; rate 0.1250 kg/ha) | ZEAMX preemergence herbicidal rating ([9]; rate 0.2500 kg/ha) | Herbicidal rating CYPIR ([11]; 0.1160 kg/ha) | Herbicidal rating CYPIR ([11]; 0.2310 kg/ha) | Herbicidal rating CYPIR ([11]; 0.4630 kg/ha) | Herbicidal rating SAGPY [14, 23]
4.5: TRZAWR herbicidal rating ([4]; rate 0.0630 kg/ha)
5.0: IPOHE herbicidal rating ([2]; rate 0.0630 kg/ha)
4.0: TRZAWR herbicidal rating ([4]; rate 0.0315 kg/ha)
9.0: IPOHE herbicidal rating ([2]; rate 0.0315 kg/ha) | ABUTH preemergence herbicidal rating ([5]; rate 0.1250 kg/ha) | ABUTH preemergence herbicidal rating ([5]; rate 0.2500 kg/ha) | Herbicidal rating ECHORC ([10]; 0.4630 kg/ha) | Herbicidal rating MOOVA ([12]; 0.1160 kg/ha) | Herbicidal rating MOOVA ([12]; 0.2310 kg/ha) | Herbicidal rating MOOVA ([12]; 0.4630 kg/ha) | Herbicidal rating ECHORC [13, 25]
7.0: Herbicidal rating ECHORC ([10]; 0.1160 kg/ha) | Herbicidal rating ECHORC ([10]; 0.2310 kg/ha) | Herbicidal rating ECHORC [13, 23] | Herbicidal rating ECHORC [13, 24]
1.0: SETVI herbicidal rating ([3]; rate 0.0158 kg/ha)
2.0: GALAP herbicidal rating ([1]; rate 0.0158 kg/ha) | IPOHE herbicidal rating ([2]; rate 0.0158 kg/ha) | SETVI herbicidal rating ([3]; rate 0.0315 kg/ha) | SETVI herbicidal rating ([3]; rate 0.0630 kg/ha)
3.0: GALAP herbicidal rating ([1]; rate 0.0315 kg/ha) | GALAP herbicidal rating ([1]; rate 0.0630 kg/ha) | TRZAWR herbicidal rating ([4]; rate 0.0158 kg/ha) | Herbicidal rating SAGPY [14, 24] | Herbicidal rating SAGPY [14, 25]
